The results in this text go back to ChEMBL document CHEMBL4049432, “Structure-Guided Discovery of Potent and Selective Inhibitors of ERK1/2 from a Modestly Active and Promiscuous Chemical Start Point” (J Med Chem, 2017).

Data set [1] in a line: Octanol-aqueous phosphate buffer distribution coefficient, log D of the compound at pH 7.4. Type of data set: physicochemical.
A short description of data set [2]: Volume of distribution at steady state in rat plasma. The format is ADME. The conditions noted are these: read-out: Vdss.
A short description of data set [3]: Oral bioavailability in rat. The format is ADME, organism-based. To be noted: in vivo.
A short description of data set [4]: Volume of distribution at steady state in dog plasma. Type of data set: ADME, Canis lupus familiaris. To be noted: read-out: Vdss.
A short description of data set [5]: Oral bioavailability in dog. The format is ADME, organism-based, Canis lupus familiaris. The conditions noted are these: in vivo.

The structures appear in SMILES notation.

One may read the logD as lipophilicity at a set pH, counting ionised and neutral species. High values mean a more lipophilic compound, low ones a more hydrophilic compound. Regarding `COCCN1C(=O)c2cc(-c3ccnc(Nc4ccnn4C)n3)[nH]c2C[C@@H]1C`, the log distribution coefficient (logD) in data set [1] is 1.8.
Turning to `COCCN1C(=O)c2cc(-c3nc(Nc4ccnn4C)ncc3C)[nH]c2C[C@H]1C`, in data set [1], the pH-dependent lipophilicity (logD) turned out to be 2.14.
On the same count and under the same terms, the same measure for `Cc1cccc(CN2CCc3[nH]c(-c4ccnc(NC5CCOCC5)n4)cc3C2=O)n1`: 2.4.
Still for that read-out and setting: the figure for `CN1CCc2[nH]c(-c3ccnc(NC4CCOCC4)n3)cc2C1=O` is 1.6.
The bioavailability is dose-corrected exposure relative to a reference, in per cent. Low readings indicate poor availability, high ones good availability. Take `Cc1cccc(CN2C(=O)c3cc(-c4nc(Nc5ccnn5C)ncc4C)cn3C[C@H]2C)n1`: the Vd in data set [2] came out at 1.3 L/kg; in data set [4], 0.9 L/kg. In addition, the bioavailability in data set [3] was 31%; in data set [5], 87%.
For the compound `O=C1NCCn2cc(-c3ccnc(NC4CCOCC4)n3)cc21`, the log distribution coefficient (logD) in data set [1] was 0.75.
On the same count and under the same terms, the figure for `COCCN1CCc2[nH]c(-c3ccnc(Nc4ccnn4C)n3)cc2C1=O` is 1.4; for `COCCN1CCc2[nH]c(-c3ccnc(NC4CCOCC4)n3)cc2C1=O` it is 1.6; for `O=C1c2cc(-c3ccnc(NC4CCOCC4)n3)[nH]c2CCN1[C@H](CO)c1ccccc1` it is 2.6.
Still for that read-out and setting: the same measure for `Cn1c(-c2ccnc(NC3CCOCC3)n2)cc2c1CCNC2=O`: 1.3.
Still for that read-out and setting: the figure for `O=C1NCCc2[nH]c(-c3ccnc(NC4CCOCC4)n3)cc21` is 1.3; for `COCCN1CCc2c(cc(-c3ccnc(NC4CCOCC4)n3)n2C)C1=O` it is 1.7; for `COCCN1C(=O)c2cc(-c3nc(Nc4ccnn4C)ncc3C)cn2C[C@H]1C` it is 1.7.
In data set [1], `COCCN1C(=O)c2cc(-c3nc(Nc4ccnn4C)ncc3C)[nH]c2C[C@@H]1C` displayed a logD of 2.11.
In the case of `COCCN1C(=O)c2cc(-c3ccnc(Nc4ccnn4C)n3)[nH]c2C[C@H]1C`, in data set [1], the logD was determined as 1.7.
The same measure, in the same setting: the same measure for `COCCN1CCn2cc(-c3nc(Nc4ccnn4C)ncc3C)cc2C1=O`: 1.3; for `O=C1c2cc(-c3ccnc(NC4CCOCC4)n3)[nH]c2CCN1[C@H](CO)c1ccc(F)c(Cl)c1`: 3.6; for `O=C1c2cc(-c3ccnc(NC4CCOCC4)n3)[nH]c2CCN1Cc1ccccc1`: 3.2.
The same measure, in the same setting: the same measure for `COCCN1C(=O)c2cc(-c3nc(Nc4ccnn4C)ncc3C)cn2C[C@@H]1C`: 1.6.
Same read-out and setting: the same measure for `O=C1c2cc(-c3ccnc(NC4CCOCC4)n3)[nH]c2CCN1[C@H](CO)c1ccc(Cl)c(F)c1`: 3.5; for `Cc1cccc(CN2CCn3cc(-c4nc(Nc5ccnn5C)ncc4C)cc3C2=O)n1`: 2.2; for `Cn1c(-c2ccnc(NC3CCOCC3)n2)cc2c1CCN(Cc1ccccc1)C2=O`: 3.3.
For the compound `CN1CCN(c2ccc(Nc3nccc(-c4cc5c([nH]4)CCNC5=O)n3)cc2)CC1`, the logD in data set [1] stood at 1.5.
Same read-out and setting: the figure for `Cc1cccc(CN2C(=O)c3cc(-c4ccnc(Nc5ccnn5C)n4)cn3CC2C)n1` (single isomer, unassigned; isomer 2) is 2.3.
